Source: patent EP2826473A1, “NOVEL USE OF PATCHOULOL” (Chengdu Huasun Group Inc., Ltd., priority 2012, dated 2013)
pIC50: −log10 of the molar value. ≈ marks a conversion by molar mass, not a printed value. Like-named read-outs stand apart in the source and are kept apart here.

Legend:
Escherichia coli = assay: in vitro bacteriostatic activity, agar dilution MIC, quality control strain and summary; format: cell-based
neurotoxicity of Aβ25∼35 = conditions: in vitro, 0.05, 0.5, 5 µg/ml; cited from earlier work
[1] = tested on: Staphylococcus epidermidis ATCC 12228; assay: in vitro bacteriostatic activity, agar dilution MIC, quality control strain; format: cell-based; conditions: ATCC12228; Staphylococcus epidermidis ATCC 12228; read-out: MIC
[2] = tested on: Staphylococcus saprophyticus; assay: in vitro bacteriostatic activity, agar dilution MIC; format: cell-based
[3] = tested on: influenza virus A/PR/8/34 (H1N1); conditions: in vitro; cited from earlier work
Streptococcus uberis = assay: in vitro bacteriostatic activity, agar dilution MIC; format: cell-based; conditions: Streptococcus uberis 12-1
[4] = tested on: Chryseobacterium indologenes; assay: as above; format: cell-based
[5] = tested on: carrageenan-induced paw edema; conditions: cited from earlier work
[6] = tested on: influenza virus A/FM/1/47 (H1N1); conditions: intragastric 40 and 80 mg/kg for successive 7 days; cited from earlier work
[7] = tested on: humoral immunity and mononuclear phagocyte functions; conditions: intragastric 40 and 80 mg/(kg·d) for successive 7 days; cited from earlier work
Staphylococcus xylosus = assay: in vitro bacteriostatic activity, agar dilution MIC; format: cell-based
Acinetobacter lwoffii = assay: as above; format: cell-based
[8] = tested on: Staphylococcus auricularis; assay: as above; format: cell-based
Streptococcus pneumoniae = assay: as above; format: cell-based
Enterococcus faecium = assay: as above; format: cell-based; conditions: Enterococcus faecium, read-out: MIC
Klebsiella pneumonia E^+ = assay: as above; format: cell-based; conditions: Klebsiella pneumoniae
[9] = tested on: methicillin-resistant Staphylococcus aureus ATCC 43300; assay: prevention of bacterial infection, colony count on patchoulol-coated tubes; conditions: cultured 7 days at 37°C
[10] = cited from earlier work
[11] = tested on: Gram-positive bacteria and Gram-negative bacteria; assay: in vitro bacteriostatic activity, summary of Tables 1-5; format: cell-based; conditions: read-out: MIC values
Procedure: Preparation of drug-containing flat plates: patchoulol was diluted by coubling double dilution in DMSO, and 1 ml and 14 ml of sterile MH culture media in different gradient concentrations were respectively added to the disposable sterile petri dishes. Tested drugs were respectively diluted to different gradient concentrations from 768 to 0.006 µg/ml, fully mixed, and dried to reserve. As mentioned above, replacing tested drug with same amount of normal saline was used to prepare positive control plates.
Preparation of bacterial liquid: Tested strains and drug-sensitive strains used for quality control were diluted with stroke-physiological saline solution to the concentration of 10^6 CFU/ml. […]
Staphylococcus aureus and Staphylococcus epidermidis were cultured at 35-37°C for 18-24 h in MH media (containing 2% NaCl); Streptococcus pneumonia was cultured in brain heart infusion agar media (containing 5% goat blood) within an incubator under 5% CO2 at 35°C for 24 hours; Gram-negative bacteria and other strains were placed in an incubator at 35-37°C and cultured for 18-20 h; Results were observed and recorded. […]

vomit response = conditions: chickens, 50-70 mg/kg; cited from earlier work
Staphylococcus aureus = assay: in vitro bacteriostatic activity, agar dilution MIC, quality control strains; format: cell-based; conditions: read-out: MIC
[12] = tested on: Staphylococcus epidermidis MSSE; assay: in vitro bacteriostatic activity, agar dilution MIC; format: cell-based; conditions: Staphylococcus epidermidis, read-out: MIC

In the case of `C[C@H]1CC[C@@]2(O)C(C)(C)[C@@H]3CC[C@@]2(C)[C@H]1C3` (stereo in doubt) [PC, (1R,4S,4aS,6R,8aS)-octahydro-4,8a,9,9-tetramethyl-1,6-methanonaphthalen-1(2H)-ol], the MIC (Escherichia coli; ATCC25922, Escherichia coli ATCC 25922, read-out: MIC) is given as 768 µg/mL (≈ 3450 µM), the MIC (Escherichia coli; summary, Escherichia coli ESBLs /ESBLs^+, read-out: MIC values) is given as at least 768 µg/mL and the “increase of intra-cellular ROS level and [Ca^2+]I induced by Aβ25~35” value (neurotoxicity of Aβ25∼35) is given as “inhibit the increase”. The MIC [1] was 64 µg/mL (≈ 288 µM), the MIC ([2]; Staphylococcus saprophyticus 12-2) was 100 µg/mL (≈ 450 µM) and the MIC ([2]; Staphylococcus saprophyticus12-3) was 100 µg/mL (≈ 450 µM). The MIC ([2]; Staphylococcus saprophyticus, Staphylococcus saprophyticus12-1, read-out: MIC) was 100 µg/mL (≈ 450 µM), the pIC50 [3] was about 5.58 and the MIC (Streptococcus uberis) was 25 µg/mL (≈ 112 µM). For the same molecule, the MIC ([4]; Chryseobacterium indologenes12- (first line, r25)) was 25 µg/mL (≈ 112 µM), the MIC ([4]; Chryseobacterium indologenes12- (second line, r26)) was 100 µg/mL (≈ 450 µM) and the “content of NO, PGE-2, TNF-α in the hind paw” value ([5]; inflammatory rats, high dosage) was “significantly reduce”. For the same molecule, the carrageenan-induced paw edema ([5]; rats, dose-dependent) was “effectively inhibit”, the “survival rate of nonlethal and lethal model mice” value [6] was “obviously improve the survival rate” and the “thymus gland index, spleen index, sanguinin content, and clearance index” value [7] was “effectively improve”. The MIC (Staphylococcus xylosus; Staphylococcus xylosus 12-1 (first line, r17), read-out: MIC) was 100 µg/mL (≈ 450 µM), the MIC (Staphylococcus xylosus; Staphylococcus xylosus 12-1 (second line, r18)) was 100 µg/mL (≈ 450 µM) and the MIC (Acinetobacter lwoffii; Acinetobacter lwoffii 12-1, read-out: MIC) was 50 µg/mL (≈ 225 µM). It also gave an MIC (Acinetobacter lwoffii; Acinetobacter lwoffii 12-2) of 50 µg/mL (≈ 225 µM), an MIC ([8]; Staphylococcus auricularis (first line, r19)) of 25 µg/mL (≈ 112 µM) and an MIC ([8]; Staphylococcus auricularis (second line, r20)) of 50 µg/mL (≈ 225 µM). For the same molecule, the MIC (Streptococcus pneumoniae; ATCC49619, Streptococcus pneumonia ATCC 49619) was 200 µg/mL (≈ 899 µM), the MIC (Streptococcus pneumoniae; Streptococcus pneumonia 12-6) was 100 µg/mL (≈ 450 µM) and the MIC (Streptococcus pneumoniae; Streptococcus pneumonia 12-7) was 200 µg/mL (≈ 899 µM). The MIC (Streptococcus pneumoniae; Streptococcus pneumonia 12-8) was 100 µg/mL (≈ 450 µM), the MIC (Streptococcus pneumoniae; Streptococcus pneumonia 12-9) was 100 µg/mL (≈ 450 µM) and the MIC (Streptococcus pneumoniae; Streptococcus pneumonia 12-10) was 200 µg/mL (≈ 899 µM). The MIC (Streptococcus pneumoniae; Streptococcus pneumoniae 12-1) was 200 µg/mL (≈ 899 µM), the MIC (Streptococcus pneumoniae; Streptococcus pneumoniae 12-2) was 100 µg/mL (≈ 450 µM) and the MIC (Streptococcus pneumoniae; Streptococcus pneumoniae 12-3) was 200 µg/mL (≈ 899 µM). For the same molecule, the MIC (Streptococcus pneumoniae; Streptococcus pneumoniae 12-4) was 200 µg/mL (≈ 899 µM), the MIC (Streptococcus pneumoniae; Streptococcus pneumoniae 12-5) was 100 µg/mL (≈ 450 µM) and the MIC (Enterococcus faecium; ATCC33186, Enterococcus faecium ATCC 33186) was 128 µg/mL (≈ 576 µM). For the same molecule, the MIC (Enterococcus faecium; Enterococcus faecium 12-7) was 64 µg/mL (≈ 288 µM), the MIC (Enterococcus faecium; Enterococcus faecium 12-8) was 64 µg/mL (≈ 288 µM) and the MIC (Enterococcus faecium; Enterococcus faecium 12-9) was 64 µg/mL (≈ 288 µM). The MIC (Enterococcus faecium; Enterococcus faecium 12-10) was 32 µg/mL (≈ 144 µM), the MIC (Enterococcus faecium; Enterococcus faecium 12-11) was 32 µg/mL (≈ 144 µM) and the MIC (Enterococcus faecium; Enterococcus faecium 12-12) was 64 µg/mL (≈ 288 µM). It also gave an MIC (Enterococcus faecium; Enterococcus faecium 12-13) of 64 µg/mL (≈ 288 µM), an MIC (Enterococcus faecium; Enterococcus faecium 12-14) of 64 µg/mL (≈ 288 µM) and an MIC (Enterococcus faecium; Enterococcus faecium 12-15) of 32 µg/mL (≈ 144 µM). For the same molecule, the MIC (Enterococcus faecium; Enterococcus faecium 12-16) was 32 µg/mL (≈ 144 µM), the MIC (Klebsiella pneumonia E^+; Klebsiella pneumonia E^+ 10-2) was over 768 µg/mL and the MIC (Klebsiella pneumonia E^+; Klebsiella pneumonia E^+ 10-6) was over 768 µg/mL. The bacterial colony numbers ([9]; 400, 200, 100 and 50 µg/ml, compared with 0 µg/ml) was “decrease”, the bacterial colony numbers ([9]; patchoulol on intraductal membranes more than or equal to 600 µg/ml) was 0 and the solubility ([10]; in petroleum ether, ethanol and other commonly used organic solvents) was “freely soluble”. For the same molecule, the solubility ([10]; in water) was “insoluble”, the MIC [11] was 1.5 to 200 µg/mL (≈ 6.75 to 899 µM) and the “vomit response induced by CuSO4” value (vomit response) was “obviously inhibit”. For the same molecule, the MIC (Staphylococcus aureus; ATCC25923, Staphylococcus aureus ATCC 25923) was 1.5 µg/mL (≈ 6.75 µM), the MIC (Staphylococcus aureus; ATCC29213, Staphylococcus aureus ATCC 29213) was 64 µg/mL (≈ 288 µM) and the MIC ([12]; Staphylococcus epidermidis MSSE 10-43) was 1.5 µg/mL (≈ 6.75 µM). The MIC ([12]; Staphylococcus epidermidis MSSE 10-44) was 1.5 µg/mL (≈ 6.75 µM), the MIC ([12]; Staphylococcus epidermidis MSSE 12-11) was 32 µg/mL (≈ 144 µM) and the MIC ([12]; Staphylococcus epidermidis MSSE 12-12) was 32 µg/mL (≈ 144 µM). The MIC ([12]; Staphylococcus epidermidis MSSE 12-13) was 64 µg/mL (≈ 288 µM), the MIC ([12]; Staphylococcus epidermidis MSSE 12-14) was 64 µg/mL (≈ 288 µM) and the MIC ([12]; Staphylococcus epidermidis MSSE 12-15) was 64 µg/mL (≈ 288 µM). The MIC ([12]; Staphylococcus epidermidis MSSE 12-16) was 32 µg/mL (≈ 144 µM), the MIC ([12]; Staphylococcus epidermidis MSSE 12-17) was 32 µg/mL (≈ 144 µM) and the MIC ([12]; Staphylococcus epidermidis MSSE 12-18) was 32 µg/mL (≈ 144 µM). The MIC ([12]; Staphylococcus epidermidis MSSE 12-19) was 32 µg/mL (≈ 144 µM) and the MIC ([12]; Staphylococcus epidermidis MSSE 12-20) was 64 µg/mL (≈ 288 µM).
